Patent US8445474B2 (Knopp Neurosciences, Inc., priority 2006, dated 2013)
Read-outs that look alike come from different tables or passages of the source.

Assays:
in vivo = details: male, beagle, dog
Protocol: (§1) Doses were administered orally by gavage and clinical observations were taken continuously following dosing: hourly for the first four hours, and then twice daily cage-side observations for the duration of the inter-dose or post-dose interval. Observations were made of clinical signs, mortality, injury and availability of food and water. Animals were fasted for 24 hr prior to dosing. Dogs in each group were exposed to only one drug, or the combination; each dose was administered only once, with a subsequent dose administered after a recovery period of 4 days.

human subjects = details: cited from earlier work
monkeys = details: single oral dose; cited from earlier work
[1] = target: human cloned dopamine receptor D5 (Homo sapiens, UniProt P21918); details: historic data; cited from earlier work
rodents [2] = details: single oral dose, and above; cited from earlier work
rodents [3] = system: rodents
dogs = details: single oral dose, and above; cited from earlier work
[4] = Dissolution of exploratory combination capsules in simulated gastric fluid (SGF), chiral HPLC; format: physicochemical; details: for Average Concentrations of the enantiomer, Experiments SGF (1) and SGF (2) / Concentration of the enantiomer in SGF (1) Vessel / Concentration of the enantiomer in SGF (2) Vessel: combination capsule in 10 mL SGF pH 1.2
Protocol: Drug Formulation. […] Normal phase, chiral HPLC was used for monitoring the release of R(+) pramipexole and S(−) pramipexole in simulated gastric fluid (SGF).
Dissolution Study. SGF (pH=1.2) was prepared by diluting 1 g of sodium chloride and 7 mL of concentrated HCl to 1 L with HPLC grade water. The dissolution experiment was run as follows: an exploratory combination capsule was placed in 10 mL of SGF and shaken under ambient conditions at 600 RPM for 60 minutes. Aliquots of 100 μL were pulled from the same sample vessel at various time points. The 100 μL samples of SGF solution were evaporated using a nitrogen bleed and heat and the residues were dissolved in the HPLC diluent and filtered through 0.45 μm syringe filters. […] This experiment was performed in duplicate (experiment numbers SGF (1) (see Table 4) and SGF (2) (see Table 5)) and the results are also provided in average values (see Table 6). The tables and figures below summarize the results from these experiments.

[5] = male, beagle, dog, in vivo, 1 study day
[6] = male, beagle, dog, in vivo, 8 study day
[7] = non-naïve male beagle dogs, single oral dose
[8] = 4320 minutes, stored benchtop in clear vial

Sequence of human cloned dopamine receptor D5 (P21918 whole entry): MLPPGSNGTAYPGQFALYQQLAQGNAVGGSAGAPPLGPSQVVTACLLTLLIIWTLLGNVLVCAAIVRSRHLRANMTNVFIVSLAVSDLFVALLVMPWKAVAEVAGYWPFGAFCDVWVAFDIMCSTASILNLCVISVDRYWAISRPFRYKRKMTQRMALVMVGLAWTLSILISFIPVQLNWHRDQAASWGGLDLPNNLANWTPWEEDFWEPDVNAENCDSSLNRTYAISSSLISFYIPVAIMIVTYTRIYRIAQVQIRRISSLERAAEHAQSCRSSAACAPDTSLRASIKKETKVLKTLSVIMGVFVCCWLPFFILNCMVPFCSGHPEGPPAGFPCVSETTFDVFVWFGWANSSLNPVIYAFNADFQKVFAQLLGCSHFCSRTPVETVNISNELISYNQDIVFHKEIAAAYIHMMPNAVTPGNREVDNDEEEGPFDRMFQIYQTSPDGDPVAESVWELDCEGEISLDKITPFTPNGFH
Protocol for male beagle dogs: as §1

## CCCN[C@H]1CCc2nc(N)sc2C1 [S(−) pramipexole]
Male beagle dogs; 70 kg individual
  human dose equivalent to dog MTD: 0.30 mg
  human dose equivalent to dog NOAEL: 0.05 mg
Male beagle dogs; human equivalent
  human dose equivalent to dog NOAEL: 0.7 µg/kg
Male beagle dogs; male, beagle, dog, in vivo
  Feces mucoid (animals affected/total): 0/4
  Feces soft (animals affected/total): 0/4
  Feces watery (animals affected/total): 0/4
  Lacrimation (animals affected/total): 0/4
  Pupils dilated (animals affected/total): 0/4
  Skin warm to touch (animals affected/total): 0/4
Male beagle dogs; [5]
  Activity decreased (animals affected/total): 3/4
  Convulsions-clonic (animals affected/total): 0/4
  Emesis (animals affected/total): 3/4
  Salivation (animals affected/total): 0/4
  Tremors (animals affected/total): 1/4
Male beagle dogs; [6]
  Activity decreased (animals affected/total): 0/4
  Emesis (animals affected/total): 0/4
  Tremors (animals affected/total): 0/4
Male beagle dogs; [7]
  MTD: 7.5 µg/kg
  NOAEL: 1.25 µg/kg
In vivo
  MTD at 4 days: 4.2 µg/kg
Human subjects
  dose shown to cause somnolence: 1.5 mg
  initial, single doses not tolerated: greater than 0.20 milligrams
monkeys
  dose at which major excitation was displayed: 3500 µg/kg
[1]
  Ki: > 50 µM
Rodents [2]
  doses at which deaths occurred: 70000 to 105000 µg/kg
Rodents [3]; human equivalent
  human dose equivalent to rodent lethal dose: 7000 to 12000 µg/kg
Rodents [3]; rodents, in vivo
  human dose equivalent to rodent lethal dose: 500 to 850 mg
dogs
  dose at which vomiting occurred: ≥ 0.7 µg/kg
[4]; 3 minutes
  Average Concentrations of the enantiomer, Experiments SGF (1) and SGF (2): 0 mg/mL
  Concentration of the enantiomer in SGF (1) Vessel: 0 ng/mL
  Concentration of the enantiomer in SGF (2) Vessel: 0 ng/mL
[4]; 4 minutes
  Average Concentrations of the enantiomer, Experiments SGF (1) and SGF (2): 0 mg/mL
  Concentration of the enantiomer in SGF (1) Vessel: 0 ng/mL
  Concentration of the enantiomer in SGF (2) Vessel: 0 ng/mL
[4]; 6 minutes
  Average Concentrations of the enantiomer, Experiments SGF (1) and SGF (2): 0 mg/mL
  Concentration of the enantiomer in SGF (1) Vessel: 0 ng/mL
  Concentration of the enantiomer in SGF (2) Vessel: 0 ng/mL
[4]; 8 minutes
  Average Concentrations of the enantiomer, Experiments SGF (1) and SGF (2): 0 mg/mL
  Concentration of the enantiomer in SGF (1) Vessel: 0 ng/mL
  Concentration of the enantiomer in SGF (2) Vessel: 0 ng/mL
[4]; 10 minutes
  Average Concentrations of the enantiomer, Experiments SGF (1) and SGF (2): 0.003489 mg/mL
  Concentration of the enantiomer in SGF (1) Vessel: 6978 ng/mL
  Concentration of the enantiomer in SGF (2) Vessel: 0 ng/mL
[4]; 11 minutes
  Average Concentrations of the enantiomer, Experiments SGF (1) and SGF (2): 0.00738 mg/mL
  Concentration of the enantiomer in SGF (1) Vessel: 8956 ng/mL
  Concentration of the enantiomer in SGF (2) Vessel: 5803 ng/mL
[4]; 12 minutes
  Average Concentrations of the enantiomer, Experiments SGF (1) and SGF (2): 0.009645 mg/mL
  Concentration of the enantiomer in SGF (1) Vessel: 10830 ng/mL
  Concentration of the enantiomer in SGF (2) Vessel: 8460 ng/mL
[4]; 14 minutes
  Average Concentrations of the enantiomer, Experiments SGF (1) and SGF (2): 0.015 mg/mL
  Concentration of the enantiomer in SGF (1) Vessel: 15340 ng/mL
  Concentration of the enantiomer in SGF (2) Vessel: 14660 ng/mL
[4]; 15 minutes
  Average Concentrations of the enantiomer, Experiments SGF (1) and SGF (2): 0.01769 mg/mL
  Concentration of the enantiomer in SGF (1) Vessel: 17690 ng/mL
  Concentration of the enantiomer in SGF (2) Vessel: 17700 ng/mL
[4]; 17 minutes
  Average Concentrations of the enantiomer, Experiments SGF (1) and SGF (2): 0.02176 mg/mL
  Concentration of the enantiomer in SGF (1) Vessel: 21570 ng/mL
  Concentration of the enantiomer in SGF (2) Vessel: 21960 ng/mL
[4]; 18 minutes
  Average Concentrations of the enantiomer, Experiments SGF (1) and SGF (2): 0.02294 mg/mL
  Concentration of the enantiomer in SGF (1) Vessel: 22230 ng/mL
  Concentration of the enantiomer in SGF (2) Vessel: 23650 ng/mL
[4]; 20 minutes
  Average Concentrations of the enantiomer, Experiments SGF (1) and SGF (2): 0.028 mg/mL
  Concentration of the enantiomer in SGF (1) Vessel: 27330 ng/mL
  Concentration of the enantiomer in SGF (2) Vessel: 28670 ng/mL
[4]; 25 minutes
  Average Concentrations of the enantiomer, Experiments SGF (1) and SGF (2): 0.03742 mg/mL
  Concentration of the enantiomer in SGF (1) Vessel: 37640 ng/mL
  Concentration of the enantiomer in SGF (2) Vessel: 37210 ng/mL
[4]; 30 minutes
  Average Concentrations of the enantiomer, Experiments SGF (1) and SGF (2): 0.04566 mg/mL
  Concentration of the enantiomer in SGF (1) Vessel: 48900 ng/mL
  Concentration of the enantiomer in SGF (2) Vessel: 42420 ng/mL
[4]; 60 minutes
  Average Concentrations of the enantiomer, Experiments SGF (1) and SGF (2): 0.05654 mg/mL
  Concentration of the enantiomer in SGF (1) Vessel: 51970 ng/mL
  Concentration of the enantiomer in SGF (2) Vessel: 61100 ng/mL
[4]; [8]
  Average Concentrations of the enantiomer, Experiments SGF (1) and SGF (2): 0.09309 mg/mL
  Concentration of the enantiomer in SGF (1) Vessel: 93670 ng/mL
  Concentration of the enantiomer in SGF (2) Vessel: 92500 ng/mL
[4]; SGF pH 1.2, 60 minutes
  course of release from the capsule: did not go to completion after one hour
